# Results from patent US20200031825A1, “HETEROAROMATIC-FUSED IMIDAZOLYL AMIDES, COMPOSITIONS AND USES THEREOF AS STING AGONISTS” (Trillium Therapeutics Inc., priority 2018, published 2020).
# What was measured:
# [1] = tested on: murine A20 model of B cell lymphoma; test: In vivo syngeneic A20 mouse tumor model; conditions: Balb/c mice
# Protocol: The in vivo efficacy of exemplary compound I(c) was evaluated in a murine A20 model of B cell lymphoma. A20 cells were maintained in RPMI1640/10% FBS. Approximately 4×10^6 A20 cells were injected subcutaneously in 0.1 mL PBS into the right flanks of immunocompetent female Balb/c mice. Tumors were permitted to grow for six days after initial inoculation before the animals were segregated into treatment group. Study groups were treated with 25 μg of B formulated in an appropriate vehicle. Exemplary compound B was dosed intratumorally at the proximal tumor (right flank) on days 6, 8, and 11 of the study. Only animals in good health were used for dosing. Since the effects of the test article on the animals were not known, animals were closely observed for 1 h following dosing and at each tumor measurement time point over the course of the study. Any adverse reactions to the administration of the test material were noted and tabulated. […] Systemic toxicity of the treatments was evaluated by body weight change. Tumor volume was measured every 2 days using standard caliper measurement techniques.
# [2] = tested on: mouse dendritic cells (m-DCs); test: Cellular Functional Assay II: secreted IFN-β from mouse dendritic cells; type: cell-based; conditions: m-DC, 10 uM
# Protocol: (§1) Activation of STING in primary cells was determined by measuring levels of secreted IFN-β from human monocyte-derived macrophages (h-MDMs)/dendritic cells (h-DCs) and/or mouse dendritic cells (m-DCs) after treatment with A.
# (§2) Human CD14+ cells were first isolated from human peripheral blood mononuclear cells (PBMCs) with Stemcell Easysep Monocyte Isolation™ kit. Human CD14+ cells were kept in conditioned media for 7-12 days to generate h-MDMs and h-DCs before use. After harvesting from C57BL/6 mouse femurs, bone marrow cells were culture in conditioned media for 7 days to generate m-DCs before use.
# (§3) The Culture conditions for the various types of cells whereas noted in Table 2:
# (§4) 0.5×10^6 cells in 50 ul buffer (50 mM HEPES, pH7.0; 100 mM KCl; 3 mM MgCl2, 0.1 mM DTT; 85 mM Sucrose; 0.2% BSA, 1 mM ATP) in 96-well round bottom plate. Compound (formulated in DMSO) or DMSO (control) were added into each well and the plate incubate at 37° C. for 30 minutes. Cells were washed twice with 100 uL of fresh media and incubated at 37° C. for an additional 6 hours. After 6 hour of incubation, the supernatant was collected and a Cytometry Bead Assay™ (CBA, BioLegend) was used to measure […] levels.
# [3] = target: T1, hSTING-Q (Homo sapiens, UniProt Q86WV6, R293Q); test: Cellular Functional Assay I: ISRE-SEAP reporter, hSTING-Q allele; type: cell-based
# T1 construct: expressed in transfected cells
# [4] = target: T2, hSTING-AQ (Homo sapiens, UniProt Q86WV6, G230A/R293Q); test: Cellular Functional Assay I: ISRE-SEAP reporter, hSTING-AQ allele; type: cell-based
# T2 construct: expressed in transfected cells
# [5] = tested on: human dendritic cells (h-DCs); test: Cellular Functional Assay II: secreted IFN-β from human dendritic cells; type: cell-based; conditions: h-DC
# Protocol: as §1, §2, §3, §4
# [6] = target: hSTING-H232 (Homo sapiens, UniProt Q86WV6); test: Cellular Functional Assay I: ISRE-SEAP reporter in HEK-293T-Dual Null cells transfected with hSTING-H232; type: cell-based
# [7] = target: hSTING-wt (Homo sapiens, UniProt Q86WV6); test: Cellular Functional Assay I: ISRE-SEAP reporter in HEK-293T-Dual Null cells transfected with hSTING-wt; type: cell-based
# [8] = target: T3, mSTING-wt (Mus musculus, UniProt Q3TBT3); test: Cellular Functional Assay I: ISRE-SEAP reporter in HEK-293T-Dual Null cells transfected with mouse STING; type: cell-based; conditions: SEAP reporter
# T3 sequence (Q3TBT3 1-378): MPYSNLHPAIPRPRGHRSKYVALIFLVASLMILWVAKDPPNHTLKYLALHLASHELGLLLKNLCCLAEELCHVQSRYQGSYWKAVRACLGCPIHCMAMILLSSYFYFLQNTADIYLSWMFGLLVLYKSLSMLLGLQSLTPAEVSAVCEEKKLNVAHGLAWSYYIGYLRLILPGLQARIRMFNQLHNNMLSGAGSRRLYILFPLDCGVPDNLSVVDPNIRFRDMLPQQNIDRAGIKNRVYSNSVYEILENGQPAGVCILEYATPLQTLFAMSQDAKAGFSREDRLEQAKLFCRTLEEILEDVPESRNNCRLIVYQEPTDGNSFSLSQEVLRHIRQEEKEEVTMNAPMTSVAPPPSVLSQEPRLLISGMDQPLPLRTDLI
# [9] = target: hSTING-HAQ (Homo sapiens, UniProt Q86WV6, G230A/H232R/R293Q/R71H); test: Cellular Functional Assay I: ISRE-SEAP reporter in HEK-293T-Dual Null cells transfected with hSTING-HAQ; type: cell-based
# [10] = A20 tumor, 25 μg intratumorally on days 6, 8 and 11
# Chain of hSTING-H232 (Q86WV6 whole entry): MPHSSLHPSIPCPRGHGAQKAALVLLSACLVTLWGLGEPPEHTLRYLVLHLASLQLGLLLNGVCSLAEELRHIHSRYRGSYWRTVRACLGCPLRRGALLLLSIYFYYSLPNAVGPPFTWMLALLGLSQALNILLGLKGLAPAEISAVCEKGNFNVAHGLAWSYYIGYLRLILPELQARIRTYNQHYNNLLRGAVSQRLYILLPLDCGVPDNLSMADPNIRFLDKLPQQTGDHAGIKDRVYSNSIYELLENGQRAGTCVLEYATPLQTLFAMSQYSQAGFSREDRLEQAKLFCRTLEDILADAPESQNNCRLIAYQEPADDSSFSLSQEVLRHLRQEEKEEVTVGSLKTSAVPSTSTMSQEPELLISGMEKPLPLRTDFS
# Chain of hSTING-wt (Q86WV6 whole entry H232R): as the sequence (Q86WV6 whole entry) above, with H232R counted along it
# Chain of hSTING-HAQ (Q86WV6 whole entry R71H/G230A/H232R/R293Q): as the sequence (Q86WV6 whole entry) above, with R71H, G230A, H232R, R293Q counted along it
# T1 sequence (Q86WV6 whole entry R293Q): as the sequence (Q86WV6 whole entry) above, with R293Q counted along it
# T2 sequence (Q86WV6 whole entry G230A/H232R/R293Q): as the sequence (Q86WV6 whole entry) above, with G230A, H232R, R293Q counted along it
structure (smiles),measurement,setting,value
"CCn1nc(C)cc1C(=O)Nc1nc2cc(C(N)=O)cnc2n1C/C=C/Cn1c(NC(=O)c2cc(C)nn2CC)nc2cc(C(N)=O)cc(C)c21.Cl.Cl.Cl.Cl [Compound B, 3-[(E)-4-[5-carbamoyl-2-[(2-ethyl-5-methyl-pyrazole-3-carbonyl)amino]-7-methyl-benzimidazol-1-yl]but-2-enyl]-2-[(2-ethyl-5-methyl-pyrazole-3-carbonyl)amino]imidazo[4,5-b]pyridine-6-carboxamide Tetrahydrochloride]",dose related toxicity as measured by body weight loss,[1]; 25 μg dose group,no dose related toxicity
same,animals with complete tumor regression,[1]; [10],80%
same,tumoricidal effect at the injected tumor,[1]; [10],significant tumoricidal properties
same,IFN-β level,[2],">60,000 pg/ml"
same,EC50,[3],1 to 500 nM
same,EC50,[4],1 to 500 nM
same,IFN-β level,[5]; 0.1 uM,>800 pg/mL
same,IFN-β level,[5]; 1 uM,">1,000 pg/ml"
same,IFN-β level,[5]; 10 uM,">1,000 pg/ml"
same,"EC50 level, human STING REF (also called H232)",[6],pM or nM level
same,EC50,"[6]; HEK-293T-Dual Null, hSTING-H232",< 1 nM
same,"EC50 level, human STING WT",[7],pM or nM level
same,EC50,"[7]; HEK-293T-Dual Null, hSTING-wt",< 1 nM
same,"EC50 level, mouse STING",[8],pM or nM level
same,EC50,"[8]; HEK-293T-Dual Null, mSTING-wt, read-out: EC50 mSTING-wt",1 to 500 nM
same,"EC50 level, human STING HAQ",[9],pM or nM level
same,EC50,"[9]; HEK-293T-Dual Null, hSTING-HAQ",1 to 500 nM
